Series [1] concerns prednisolone-resistant leukemia cells. Kind of series: Overcoming of prednisolone resistance. The class given is cell-based. Particulars: 72 h. How it is done: (§1) The cells were incubated in 6-well plates with 1.0·10^5 cells/mL in two milliliters of medium with the respective steroid derivative in different concentrations. The included solvent control (DMSO) served as a control, which was subtracted from all the other measured values, in order not to take into account the spontaneous apoptosis of the cells that takes place independently of the concentration of active ingredient. After 72 h, a modified cell cycle analysis was performed, in order to quantify the proportion of apoptotic cells by flow cytometry. For each concentration of the steroid, the respective mean values f standard deviations, n=3 (*: p<0.05 vs. DMSO, t test) were determined. Using the curve of the dose-effect relationship (steroid concentration−apoptosis induction) formed from these measured values, the steroid concentration at which apoptosis was triggered in 50% of the tested leukemia cells was read.
Prednisolone resistance is said to be overcome if the induction of apoptosis in prednisolone-resistant leukemia cells is as high as it is in normal leukemia cells.

The nature of series [2]: Tolerability (dose escalation, MTD) in an animal model. The class given is in vivo, NOG-F (Taconic) mice. On the procedure:
An incremental increase of dose of the three substances Wil-071, Wil-232 and Wil-369 was performed in 8-week-old female NOG-F (Taconic) mice. Different mice were administered one of up to seven different doses of the test substances. The start was on day 1 with the lowest dose of 10 mg/kg. […] All in all, if possible, the doses 10, 20, 40, 80, 100, 150 and 200 mg/kg are tested. Subsequently, the maximum tolerable dose (MTD) was administered to three more animals, and these were subsequently observed for one week, in order to be able to observe any developing symptoms. For this purpose, the animals were observed and weighed on a daily basis. The body weight is considered an indicator of the general condition of the animals.
(§2) For the MTD experiment, Wil-071 was dissolved in 100% DMSO, and then diluted 1:50 with a 20% (w/v) 2-hydroxypropyl-beta-cyclodextrin (HPβCD) solution. Thus, 200 μL of injection solution (per mouse) of a 40 mg/kg dose could be achieved. For 80, 100 and 150 mg/kg, the DMSO proportion was increased to up to 4% (v/v) in the final injection solution. In addition, ultrasound had to be employed, and the sample had to be heated at 60° C. for up to 45 min. 200 mg/kg was reached only as a milky suspension. […] Therefore, Wil-071 can be considered non-toxic up to 150 mg/kg. The final MTD could not be determined because of the insufficient solubility.
For 100 mg/kg of Wil-232, the end concentration of DMSO in the injection solution was 2%. In order to dissolve Wil-232, the sample also had to be treated with ultrasound, and heated at 60° C. The dose of 150 mg/kg was achieved only with 4% DMSO, and 200 mg/kg was achieved only as a suspension. […] Otherwise, there were no signs of toxicity, so that the substance can be considered tolerable up to 150 mg/kg. In this case too, a final MTD cannot be determined because of insufficient solubility.
Using a DMSO stock and 20% HPβCD solution, a maximum of only 5 mg/ml was dissolved. A further increase could not be achieved even with more DMSO or HPβCD. Thus, above the dose of 40 mg/kg, a higher injection volume was injected in order to reach the corresponding dose. […] For the tolerability under the current solubility conditions, a value of […] is to be applied. This dose was injected into the 8 animals for pharmacokinetics. In this case too, a final MTD cannot be determined because of insufficient solubility.

A further series has as its system Nalm-6 cells. Kind of series: Half-maximal apoptosis induction (AC50) in Nalm-6 cells. The class given is cell-based. Particulars: Homo sapiens; Nalm-6, 72 h, flow cytometry; read-out: Biological effect: half-maximal apoptosis induction (AC50). How it is done: Apoptosis Induction in Nalm-6 Cells after Treatment with WIL-071 or Different Steroid Derivatives.
as §1
On the technique in general: In flow cytometry, cells or beads pass a laser one at a time.

The nature of series [3]: Distribution in serum, brain and liver after injection. The class given is in vivo, NOG-F (Taconic) mice. On the procedure:
Following the determination of the MTD, eight animals were again injected the MTD of the substances, and after 1, 2, 8 and 24 hours, 2 animals each were killed. For pharmacokinetics, the liver, brain and serum of the animals were shock-frosted in liquid nitrogen, and analyzed (see Example 15).
The samples obtained in Example 4 were examined for the contents of the substances. Since WIL-369 can be hydrolyzed to WIL-071, both WIL-369 and WIL-071 were determined in the samples. As far as these substances were detectable in the samples, this is represented in the Figures.

Series [4] is classed as physicochemical. How it is done: All three substances are sparingly soluble in tested injection solutions, so that the maximal dose could not exceed 200 mg/kg.
as §2
For 100 mg/kg of Wil-232, the end concentration of DMSO in the injection solution was 2%. In order to dissolve Wil-232, the sample also had to be treated with ultrasound, and heated at 60° C. The dose of 150 mg/kg was achieved only with 4% DMSO, and 200 mg/kg was achieved only as a suspension. […] In this case too, a final MTD cannot be determined because of insufficient solubility.
Using a DMSO stock and 20% HPβCD solution, a maximum of only 5 mg/ml was dissolved. […] In this case too, a final MTD cannot be determined because of insufficient solubility.

One may read the EC50 as the concentration giving half of the maximal effect. Low values mean greater potency, high ones weaker potency. A word on the AC50: it is the midpoint of the concentration-response curve, whichever way the signal moves.

On to `COC(=O)/C=C/C(=O)O[C@H]1CC[C@@]23CO[C@@H](C(=O)[C@@]2(O)C1)[C@H]1[C@@H]2CC[C@H]([C@H](C)CCCC(C)C)[C@@]2(C)CC[C@@H]13` [WIL369, (7β,19-epoxy-5α-hydroxy-6-on-cholestan-3β-yl)methyl ester of fumaric acid], for which, in series [1], the midpoint of the response, the EC50, lay at 5 µM. The mortality entry in series [2] (100 mg/kg dose group, one animal) is reported as “found dead on day 3 after the injection”. Moreover, in series [2] (100 mg/kg in twice as large injection volumes), the behaviour after injection entry is listed as “the animals lay down on their side for some moments, but recovered quickly”. Also, the “tolerability under the current solubility conditions” value in series [2] (mice, injection) was determined as 50 mg/kg. In addition, in the series with Nalm-6 cells, the half-maximal activity concentration (AC50) was approximately 3 µM. In series [3], the “distribution in the liver” value is “a quick degradation takes place in the liver; it is the only place where WIL-369 is found”. In series [4], the maximum dissolved concentration is not above 5 mg/mL and the solubility entry was “lowest solubility”.
